The target in the assay is Pin1 (murine embryonic fibroblasts) (Mus musculus, UniProt Q9QUR7). Kind of assay: EGCG-Sepharose pull-down from MEF lysates. In kind it is cell-based.

Usually Ki stands for the equilibrium dissociation constant of an inhibitor or competing ligand from its target.

Sequence of Pin1 (murine embryonic fibroblasts) (Q9QUR7 whole entry): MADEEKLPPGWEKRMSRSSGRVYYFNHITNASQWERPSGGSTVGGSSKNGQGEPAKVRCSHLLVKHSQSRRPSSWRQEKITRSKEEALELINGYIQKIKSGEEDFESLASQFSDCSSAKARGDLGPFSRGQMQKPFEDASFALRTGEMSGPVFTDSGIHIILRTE

In turn, `O=C(O[C@@H]1Cc2c(O)cc(O)cc2O[C@@H]1c1cc(O)c(O)c(O)c1)c1cc(O)c(O)c(O)c1` [EGCG, epigallocatechin-3-gallate] yielded a Ki of 45 µM.

The values above are taken from paper PMC3244823 (2011).
